Reference: BindingDB's records for doi:10.1073/pnas.83.13.4918 (Merck Sharp & Dohme Research Laboratories, 1986)
Where a SMILES comes first, the peptide text is derived from it. [ ]: non-standard residue; d: D form. The star is where a group is joined. sY = N[C@@H](Cc1ccc(OS(=O)(=O)O)cc1)C(=O)O; Cbz = O=C(OCc1ccccc1)*

How the values were obtained:
Cholecystokinin = biological target: T1, Cholecystokinin (Rattus norvegicus, UniProt P01355)
T1 sequence (P01355 whole entry): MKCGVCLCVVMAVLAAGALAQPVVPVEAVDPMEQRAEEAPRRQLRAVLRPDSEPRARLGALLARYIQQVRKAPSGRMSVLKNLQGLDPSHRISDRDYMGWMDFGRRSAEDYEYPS

[1] = biological target: Gamma-aminobutyric acid receptor subunit alpha-1 (Rattus norvegicus, UniProt P62813)
[2] = biological target: GABA(A) receptor-associated protein (Sus scrofa, UniProt D7RA28)
Chain of GABA(A) receptor-associated protein (D7RA28 whole entry): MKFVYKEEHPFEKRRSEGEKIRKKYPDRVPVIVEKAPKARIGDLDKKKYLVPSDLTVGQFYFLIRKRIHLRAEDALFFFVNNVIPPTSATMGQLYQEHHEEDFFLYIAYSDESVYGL

Chain of Gamma-aminobutyric acid receptor subunit alpha-1 (P62813 whole entry): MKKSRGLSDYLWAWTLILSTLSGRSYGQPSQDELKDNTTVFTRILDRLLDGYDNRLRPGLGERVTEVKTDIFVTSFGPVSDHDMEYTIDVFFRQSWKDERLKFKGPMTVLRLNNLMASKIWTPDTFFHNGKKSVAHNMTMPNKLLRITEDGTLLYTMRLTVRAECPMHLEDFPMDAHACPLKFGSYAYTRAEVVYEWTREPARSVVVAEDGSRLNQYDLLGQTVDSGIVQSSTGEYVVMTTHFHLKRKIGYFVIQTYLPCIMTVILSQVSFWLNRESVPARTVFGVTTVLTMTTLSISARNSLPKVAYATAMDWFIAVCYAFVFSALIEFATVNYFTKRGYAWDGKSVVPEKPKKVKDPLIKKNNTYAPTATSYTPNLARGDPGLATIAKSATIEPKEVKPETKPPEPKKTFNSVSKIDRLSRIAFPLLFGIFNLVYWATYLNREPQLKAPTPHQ

Row | Compound | Ki (Cholecystokinin) [nM] | Ki [1] [nM] | Ki [2] [nM]
1 | O=C(NC(Cc1c[nH]c2ccccc12)C(=O)O)c1ccc(Cl)cc1 (centres undefined) | > 10000 |  | 
2 | O=C1Nc2ccc(Cl)cc2C(c2ccccc2)=N[C@@H]1Cc1c[nH]c2ccccc12 | 3400 | > 10000 | 
3 | O=C(NC1N=C(c2ccccc2)c2ccccc2NC1=O)c1cc2ccccc2[nH]1 (centres undefined) | 4.7 | > 10000 | 
4 | O=C(NC1N=C(c2ccccc2F)c2ccccc2NC1=O)c1cc2ccccc2[nH]1 (centres undefined) | 2.1 |  | 3000
5 | Cc1nnc2n1-c1ccccc1C(c1ccccc1F)=NC2Cc1c[nH]c2ccccc12 (centres undefined) | 300 |  | 800
6 | CN1C(=O)[C@H](NC(=O)c2cc3ccccc3[nH]2)N=C(c2ccccc2)c2ccccc21 |  |  | > 10000
7 | CN1C(=O)[C@@H](NC(=O)c2cc3ccccc3[nH]2)N=C(c2ccccc2)c2ccccc21 [1H-Indole-2-carboxylic acid (1-methyl-2-oxo-5-phenyl-2,3-dihydro-1H-benzo[e][1,4]diazepin-3-yl)-amide: 0.1C4H10O. 0.15CH2Cl2] |  |  | > 10000
8 | CSCC[C@H](NC(=O)[C@H](Cc1ccc(OS(=O)(=O)O)cc1)NC(=O)OCc1ccccc1)C(=O)NCC(=O)N[C@@H](Cc1c[nH]c2ccccc12)C(=O)N[C@@H](CCSC)C(=O)N[C@@H](CC(=O)O)C(N)=O [Benzyloxycarbonyl CCK(27-32)NH2] (Cbz-[sY]MGWMD-NH2) | 3500 |  | 
9 | O=C1Nc2ccc(Cl)cc2C(c2ccccc2)=N[C@H]1Cc1c[nH]c2ccccc12 [CCK antagonist synthetic 6] | > 10000 | 5600 | 
10 | CN1C(=O)[C@@H](Cc2c[nH]c3ccccc23)N=C(c2ccccc2)c2cc(Cl)ccc21 [CCK antagonist synthetic 7] | 1400 |  | 
11 | O=C1Nc2ccccc2C(c2ccccc2)=N[C@@H]1Cc1c[nH]c2ccccc12 [CCK antagonist synthetic 8] | 1200 | > 10000 | 
12 | O=C1Nc2ccccc2C(c2ccccc2F)=N[C@@H]1Cc1c[nH]c2ccccc12 [CCK antagonist synthetic 9] | 500 |  | > 10000
13 | CN1C(=O)[C@@H](Cc2c[nH]c3ccccc23)N=C(c2ccccc2F)c2ccccc21 [CCK antagonist synthetic 11] | 270 |  | > 10000
14 | O=C(O)CN1C(=O)[C@@H](Cc2c[nH]c3ccccc23)N=C(c2ccccc2F)c2ccccc21 [CCK antagonist synthetic 13] | 300 |  | > 10000
15 | Cc1ccc2c(C(=O)NC3N=C(c4ccccc4F)c4ccccc4NC3=O)c[nH]c2c1 (centres undefined) [CCK antagonist synthetic 15] | 1100 |  | 
16 | CC(=O)NC1N=C(c2ccccc2F)c2ccccc2NC1=O (centres undefined) [CCK antagonist synthetic 16] | > 10000 |  | 
17 | O=C(O)CN1C(=O)C(NC(=O)c2cc3ccccc3[nH]2)N=C(c2ccccc2)c2ccccc21 (centres undefined) [CCK antagonist synthetic 20] | 1.4 |  | > 10000
18 | CN1C(=O)C(NC(=O)c2cc3ccccc3[nH]2)N=C(c2ccccc2)c2cc(F)ccc21 (centres undefined) [CCK antagonist synthetic 22] | 1.4 |  | 7800
